# Measured values reported in patent publication US7737142B2, “(Thio) carbamoyl-cyclohexane derivatives as D3/D2 receptor antagonists” (Richter Gedeon Vegyeszeti Gyar Rt., priority 2003, dated 2010).
# Assays:
# [1] = biological target: T1, rat recombinant D3 receptors (expressed in Sf9 cells) (Rattus norvegicus, UniProt P19020); assay: D3 receptor binding ([3H]-spiperone); conditions: [3H]-spiperone 0.85 nM, read-out: D3 IC-50
# T1 construct: purchased Packard BioScience, BioSignal Packard Inc. 6110139; host or cells: Sf9 cells
# [2] = biological target: Alpha-1 receptor (rat brain cortical membrane preparation); assay: Alpha-1 receptor binding ([3H]-prasosin); conditions: rat brain cortical membranes, [3H]-prasosin 0.5 nM; read-out: Alfa-1 IC-50
# [3] = biological target: T2, D2 receptor (rat brain striatal membrane preparation) (Rattus norvegicus, UniProt P61169); assay: D2 receptor binding ([3H]-spiperone); conditions: rat brain striatal membranes, [3H]-spiperone 0.6 nM; read-out: D2 IC-50
# T2 construct: on rat brain striatal membrane preparation; from tissue; host or cells: rat brain striatum membranes
# T2 sequence (P61169 whole entry): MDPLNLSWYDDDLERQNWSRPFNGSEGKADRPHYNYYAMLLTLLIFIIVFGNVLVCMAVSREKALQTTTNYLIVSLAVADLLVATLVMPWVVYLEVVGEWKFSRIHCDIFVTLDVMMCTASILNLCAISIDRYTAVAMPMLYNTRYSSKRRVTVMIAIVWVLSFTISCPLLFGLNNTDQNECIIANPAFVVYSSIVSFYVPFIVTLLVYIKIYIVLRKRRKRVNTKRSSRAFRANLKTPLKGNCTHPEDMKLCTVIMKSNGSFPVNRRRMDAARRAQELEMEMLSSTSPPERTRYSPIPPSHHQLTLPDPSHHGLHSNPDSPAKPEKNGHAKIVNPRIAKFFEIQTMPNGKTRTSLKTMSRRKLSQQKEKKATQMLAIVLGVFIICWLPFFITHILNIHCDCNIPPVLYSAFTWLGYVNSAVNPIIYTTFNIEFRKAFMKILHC
# T1 sequence (P19020 whole entry): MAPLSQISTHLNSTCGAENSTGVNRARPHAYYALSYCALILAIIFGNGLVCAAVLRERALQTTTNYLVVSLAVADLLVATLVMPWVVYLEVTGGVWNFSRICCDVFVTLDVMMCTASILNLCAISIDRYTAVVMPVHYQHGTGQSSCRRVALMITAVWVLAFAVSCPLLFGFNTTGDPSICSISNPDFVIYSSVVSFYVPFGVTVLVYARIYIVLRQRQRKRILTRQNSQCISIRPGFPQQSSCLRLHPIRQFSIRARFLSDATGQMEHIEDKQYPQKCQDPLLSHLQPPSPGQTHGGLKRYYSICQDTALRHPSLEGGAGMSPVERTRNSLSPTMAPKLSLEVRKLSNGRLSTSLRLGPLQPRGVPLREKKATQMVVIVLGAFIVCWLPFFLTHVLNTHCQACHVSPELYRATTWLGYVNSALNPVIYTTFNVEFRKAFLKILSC
Compound,IC50 [1] [nM],IC50 [2] [nM],melting point [°C],IC50 [3] [nM]
"COC(=O)C(NC(=O)N[C@H]1CC[C@H](CCN2CCN(c3cccc(Cl)c3Cl)CC2)CC1)C(C)C (relative stereo) [Compound 29, trans-2-[3-(4-{2-[4-(2,3-Dichloro-phenyl)-piperazin-1-yl]-ethyl}-cyclohexyl)-ureido]-3-methyl-butyric acid methyl ester]",1 to 10,> 200,,
"CCNC(=O)N[C@H]1CC[C@H](CCN2CCCN(c3cccc(Cl)c3Cl)CC2)CC1 [Compound 6, trans-1-{4-[2-[4-(2,3-dichlorophenyl)-hexahydro[1,4]diazepin-1-yl]-ethyl]-cyclohexyl}-3-ethyl-urea]",< 1,> 200,115 to 118,10 to 50
"CN(C)C(=O)N[C@H]1CC[C@H](CCN2CCCN(c3cccc(Cl)c3Cl)CC2)CC1 [Compound 7, trans-1-{4-[2-[4-(2,3-dichlorophenyl)-hexahydro[1,4]diazepin-1-yl]-ethyl]-cyclohexyl}-3,3-dimethyl-urea]",1 to 10,> 200,168 to 172,10 to 50
"O=C(N[C@H]1CC[C@H](CCN2CCN(c3cccc(Cl)c3Cl)CC2)CC1)N1CCCC1 [Compound 8, trans-N-{4-[2-[4-(2,3-dichlorophenyl)-piperazin-1-yl]-ethyl]-cyclohexyl}-pyrrolidine-1-carboxamide]",< 1,> 200,201 to 203,10 to 50
"O=C(N[C@H]1CC[C@H](CCN2CCCN(c3cccc(Cl)c3Cl)CC2)CC1)N1CCCC1 [Compound 9, trans-N-{4-[2-[4-(2,3-dichlorophenyl)-hexahydro[1,4]diazepin-1-yl]-ethyl]-cyclohexyl}-pyrrolidine-1-carboxamide]",< 1,> 200,,1 to 10
"CCN(C)C(=O)N[C@H]1CC[C@H](CCN2CCN(c3cccc(Cl)c3Cl)CC2)CC1 [Compound 11, trans-1-{4-[2-[4-(2,3-dichlorophenyl)-piperazin-1-yl]-ethyl]-cyclohexyl}-3-ethyl-3-methyl-urea]",,,195 to 198,
"CN1CCN(C(=O)N[C@H]2CC[C@H](CCN3CCN(c4cccc(Cl)c4Cl)CC3)CC2)CC1 [Compound 15, trans-N-{4-[2-[4-(2,3-dichlorophenyl)-piperazin-1-yl]-ethyl]-cyclohexyl}-4-methyl-piperazine-1-carboxamide]",,,166 to 168,
"O=C(N[C@H]1CC[C@H](CCN2CCN(c3cccc(Cl)c3Cl)CC2)CC1)N1CCCCC1 [Compound 17, trans-N-{4-[2-[4-(2,3-dichlorophenyl)-piperazin-1-yl]-ethyl]-cyclohexyl}-piperidine-1-carboxamide]",,,188 to 190,
"O=C(N[C@H]1CC[C@H](CCN2CCN(c3cccc(Cl)c3Cl)CC2)CC1)N1CCC(O)CC1 [Compound 18, trans-N-{4-[2-[4-(2,3-dichlorophenyl)-piperazin-1-yl]-ethyl]-cyclohexyl}-4-hydroxy-piperidine-1-carboxamide]",,,178 to 180,
"CCCCNC(=O)N[C@H]1CC[C@H](CCN2CCN(c3cccc(Cl)c3Cl)CC2)CC1 [Compound 24, trans-1-Butyl-3-(4-{2-[4-(2,3-dichloro-phenyl)-piperazin-1-yl]-ethyl}-cyclohexyl)-urea]",< 1,> 200,,10 to 50
"N#Cc1cccc(NC(=O)N[C@H]2CC[C@H](CCN3CCN(c4cccc(Cl)c4Cl)CC3)CC2)c1 [Compound 31, trans-1-(3-Cyano-phenyl)-3-(4-{2-[4-(2,3-dichloro-phenyl)-piperazin-1-yl]-ethyl}-cyclohexyl)-urea]",< 1,> 200,,
"COc1cc(NC(=O)N[C@H]2CC[C@H](CCN3CCN(c4cccc(Cl)c4Cl)CC3)CC2)cc(OC)c1OC [Compound 32, trans-1-(4-{2-[4-(2,3-Dichloro-phenyl)-piperazin-1-yl]-ethyl}cyclohexyl)-3-(3,4,5-trimethoxy-phenyl)-urea]",< 1,> 200,,10 to 50
"CCCNC(=S)N[C@H]1CC[C@H](CCN2CCN(c3cccc(Cl)c3Cl)CC2)CC1 [Compound 42, trans-1-(4-{2-[4-(2,3-Dichloro-phenyl)-piperazin-1-yl]-ethyl}-cyclohexyl)-3-propyl-thiourea]",< 1,> 200,,10 to 50
"CCNC(=S)N[C@H]1CC[C@H](CCN2CCN(c3cccc(Cl)c3Cl)CC2)CC1 [Compound 45, trans-1-(4-{2-[4-(2,3-Dichloro-phenyl)-piperazin-1-yl]-ethyl}-cyclohexyl)-3-ethyl-thiourea]",< 1,> 200,,10 to 50
"CC(C)(C)NC(=O)N[C@H]1CC[C@H](CCN2CCN(c3cccc(Cl)c3Cl)CC2)CC1 [Compound 47, trans-1-tert-Butyl-3-(4-{2-[4-(2,3-dichloro-phenyl)-piperazin-1-yl]-ethyl}-cyclohexyl)-urea]",< 1,> 200,,
"O=C(NCc1ccccc1)N[C@H]1CC[C@H](CCN2CCN(c3cccc(Cl)c3Cl)CC2)CC1 [Compound 49, trans-1-Benzyl-3-(4-{2-[4-(2,3-dichloro-phenyl)-piperazin-1-yl]-ethyl}-cyclohexyl)-urea]",< 1,> 200,,50 to 200

# Next, values leading:
IC50 [1] [nM],IC50 [2] [nM],melting point [°C],IC50 [3] [nM],Compound
< 1,> 200,235 to 238,,"CCNC(=O)N[C@H]1CC[C@H](CCN2CCN(c3cccc(Cl)c3Cl)CC2)CC1 [Compound 2, Trans-1-{4-[2-[4-(2,3-dichlorophenyl)-piperazin-1-yl]-ethyl]-cyclohexyl}-3-ethyl-urea]"
< 1,> 200,218 to 220,10 to 50,"CCCNC(=O)N[C@H]1CC[C@H](CCN2CCN(c3cccc(Cl)c3Cl)CC2)CC1 [Compound 4, trans-1-{4-[2-[4-(2,3-dichlorophenyl)-piperazin-1-yl]-ethyl]-cyclohexyl}-3-propyl-urea]"
< 1,> 200,227 to 230,10 to 50,"CC(C)NC(=O)N[C@H]1CC[C@H](CCN2CCN(c3cccc(Cl)c3Cl)CC2)CC1 [Compound 5, trans-1-{4-[2-[4-(2,3-dichlorophenyl)-piperazin-1-yl]-ethyl]-cyclohexyl}-3-isopropyl-urea]"
,,171 to 173,,"CCN(CC)C(=O)N[C@H]1CC[C@H](CCN2CCN(c3cccc(Cl)c3Cl)CC2)CC1 [Compound 10, trans-1-{4-[2-[4-(2,3-dichlorophenyl)-piperazin-1-yl]-ethyl]-cyclohexyl}-3,3-diethyl-urea]"
,,293 to 296,,"O=C(N[C@H]1CC[C@H](CCN2CCN(c3cccc(Cl)c3Cl)CC2)CC1)N1CCNCC1 [Compound 14, trans-N-{4-[2-[4-(2,3-dichlorophenyl)-piperazin-1-yl]-ethyl]-cyclohexyl}-piperazine-1-carboxamide]"
< 1,> 200,201 to 203,,"O=C(N[C@H]1CC[C@H](CCN2CCN(c3cccc(Cl)c3Cl)CC2)CC1)N1CCOCC1 [Compound 16, trans-N-{4-[2-[4-(2,3-dichlorophenyl)-piperazin-1-yl]-ethyl]-cyclohexyl}-morpholine-4-carboxamide]"
< 1,> 200,,10 to 50,"C=CCNC(=O)N[C@H]1CC[C@H](CCN2CCN(c3cccc(Cl)c3Cl)CC2)CC1 [Compound 21, trans-1-Allyl-3-(4-{2-[4-(2,3-dichloro-phenyl)-piperazin-1-yl]-ethyl}-cyclohexyl)-urea]"
< 1,> 200,,,"O=C(NC1CCCCC1)N[C@H]1CC[C@H](CCN2CCN(c3cccc(Cl)c3Cl)CC2)CC1 [Compound 33, trans-1-Cyclohexyl-3-(4-{2-[4-(2,3-dichloro-phenyl)-piperazin-1-yl]-ethyl}-cyclohexyl)-urea]"
1 to 10,> 200,,10 to 50,"CC(C)(C)NC(=S)N[C@H]1CC[C@H](CCN2CCN(c3cccc(Cl)c3Cl)CC2)CC1 [Compound 38, trans-1-tert-Butyl-3-(4-{2-[4-(2,3-dichloro-phenyl)-piperazin-1-yl]-ethyl}-cyclohexyl)-thiourea]"
< 1,> 200,,10 to 50,"CCOC(=O)CNC(=S)N[C@H]1CC[C@H](CCN2CCN(c3cccc(Cl)c3Cl)CC2)CC1 [Compound 44, trans-[3-(4-{2-[4-(2,3-Dichloro-phenyl)-piperazin-1-yl]-ethyl}-cyclohexyl)-thioureido]-acetic acid ethyl ester]"
< 1,> 200,,10 to 50,"O=C(Nc1ccccc1)N[C@H]1CC[C@H](CCN2CCN(c3cccc(Cl)c3Cl)CC2)CC1 [Compound 48, trans-1-(4-{2-[4-(2,3-Dichloro-phenyl)-piperazin-1-yl]-ethyl}-cyclohexyl)-3-phenyl-urea]"
< 1,> 200,,50 to 200,"COc1ccc(NC(=O)N[C@H]2CC[C@H](CCN3CCN(c4cccc(Cl)c4Cl)CC3)CC2)cc1 [Compound 50, trans-1-(4-{2-[4-(2,3-Dichloro-phenyl)-piperazin-1-yl]-ethyl}-cyclohexyl)-3-(4-methoxy-phenyl)-urea]"
< 1,> 200,,10 to 50,"CCOC(=O)CNC(=O)N[C@H]1CC[C@H](CCN2CCN(c3cccc(Cl)c3Cl)CC2)CC1 [Compound 51, trans-[3-(4-{2-[4-(2,3-Dichloro-phenyl)-piperazin-1-yl]-ethyl}-cyclohexyl)-ureido]-acetic acid ethyl ester]"
